{"source": "patent US7629156B2", "about": "“Ethanol production in fermentation of mixed sugars containing xylose” (E.I. du Pont de Nemours and Company, priority 2006, dated 2009)", "key": {"ZW658 strain [1]": {"test_system": "ZW658 strain", "assay": "Flask fermentation of ZW658 on glucose and xylose with sorbitol 10-200 mM", "type": "cell-based, Zymomonas mobilis", "experimental": "(§1) Approximately 1 ml of well mixed sample was obtained from flask or fermentor. First the sample absorbance was measured directly with a spectrophotometer (Amersham Biosciences Ultrospec 3300pro, GE Healthcare, Piscataway, N.J., USA). If the reading was lower than 0.6 unit, no dilution was needed. If the reading was higher than 0.6 unit, the sample was diluted with culture medium until the actual reading was in the range of 0.1 to 0.6 unit. The original OD was calculated from the dilution ratio and the actual reading.\n(§2) The analysis of sugars, acetate, ethanol, and other by-products was done with an Agilent 1100 series HPLC and Agilent ChemStation software for LC 3D. The column was BioRad Aminex HPX-87H(HPLC Organic Analysis Column 125-0140) with BioRad Micro-Guard Cartridge Cation-H (125-0129). The operating conditions were:\n(§3) Glycerol stock of seed frozen at −80° C. was thawed, then inoculated into sterile culture tubes with mixture of 60 g/L glucose, 20 g/L xylose, 10 g/L yeast extract (YE), 10 g/L KH2PO4, 2 g/L (NH4)2SO4, and 1 g/L MgSO4. Initial pH was adjusted to 5.5 with 4 N KOH. This revival culture was grown statically overnight at 37° C. It was transferred into shake flasks with 75 g/L glucose, 25 g/L xylose, 10 g/L yeast extract (YE), 10 g/L KH2PO4, 2 g/L (NH4)2SO4, and 1 g/L MgSO4. Initial pH was adjusted to 5.5 with 4 N KOH. Growth was monitored by measuring OD600. When the OD reached approximately 5, a certain volume of the seed was withdrawn into a sterile syringe for inoculation.\nIn five sterilized 125 ml Erlenmeyer culture flasks (Cat. No. 30180-036, VWR International, USA), 10 ml of ZW658 strain seed culture at Optical Density of approximately 5 (measured at 600 nm; OD600) was inoculated into each flask with 100 ml of aqueous solution containing 110 g/L glucose, 90 g/L xylose, 10 g/L yeast extract (YE), 2 g/L KH2PO4, 4 g/L KHCO3, and various concentrations of sorbitol (10, 20, 50, 100, and 200 mM). Initial pH was adjusted to 5.5 with 4 NH3PO4 solution. Mixing speed was set at 150 rpm. Fermentation was conducted at 33° C. and pH was not controlled. Samples were taken periodically. Samples were filtered through 0.22 micron filters, and the filtrates were analyzed by HPLC as described in General Methods for ethanol. Samples were diluted with medium (as described in General Methods) and the OD600 was measured to monitor cell growth. […] After 24 hours, the OD600 were 7.74, 7.86, 8.04, 7.82, and 7.12, respectively, for sorbitol concentrations of 10, 20, 50, 100, and 200 mM. After 48 hours, the OD600 were 8.30, 8.26, 8.84, 8.12, and 7.72, respectively, for sorbitol concentrations of 10, 20, 50, 100, and 200 mM. […] Ethanol production was slightly slower with 100 or 200 mM sorbitol than with 10, 20, or 50 mM sorbitol, although all cultures reached about the same final amount of ethanol produced. […] Thus 10 mM sorbitol is adequate to provide maximal ethanol production under these conditions."}, "ZW658 strain [2]": {"test_system": "ZW658 strain", "assay": "Flask fermentation of ZW658 on glucose and xylose with acetate and various polyols", "type": "cell-based, Zymomonas mobilis", "conditions": "10 mM polyol, 3 g/L acetate", "experimental": "as §1, §2, §3\nIn five sterilized 125 ml Erlenmeyer culture flasks (Cat. No. 30180-036, VWR International, USA), 10 ml of ZW658 strain seed culture at OD600 of approximately 5 was inoculated into each flask with 100 ml of aqueous solution containing 100 g/L glucose, 80 g/L xylose, 3 g/L acetate, 10 g/L yeast extract (YE), 2 g/L KH2PO4, 1 g/L MgSO4.7H2O, and 4 g/L KHCO3, and 10 mM of the following polyols: erythritol, sorbitol, mannitol, maltitol, or lactitol; or 5 mM sorbitol plus 5 mM maltitol, or 5 mM sorbitol plus 5 mM lactitol. After inoculation, the total sugar concentration was about 160 g/L due to dilution by the seed culture. Initial pH was adjusted to 5.5 with 4 N H3PO4 solution. Mixing speed was set at 150 rpm. Fermentation was conducted at 33° C. and pH was not controlled. Samples were taken periodically. Samples were filtered through 0.22 micron filters, and the filtrates were analyzed by HPLC as described in General Methods for compounds including glucose, xylose, ethanol, and acetate. Samples were diluted with medium (as described in General Methods) and the OD600 was measured to monitor cell growth."}}}
{"compound": "OC[C@@H](O)[C@@H](O)[C@H](O)[C@@H](O)CO", "note": "[sorbitol]", "values": [{"measurement": "xylitol", "setting": "ZW658 strain [1]; 10-200 mM sorbitol, any of the samples", "result": "No xylitol was detected"}, {"measurement": "OD600", "setting": "ZW658 strain [1]; after 24 hours, 10 mM sorbitol, 110 g/L glucose, 90 g/L xylose", "result": 7.74}, {"measurement": "OD600", "setting": "ZW658 strain [1]; after 24 hours, 20 mM sorbitol", "result": 7.86}, {"measurement": "OD600", "setting": "ZW658 strain [1]; after 24 hours, 50 mM sorbitol", "result": 8.04}, {"measurement": "OD600", "setting": "ZW658 strain [1]; after 24 hours, 100 mM sorbitol", "result": 7.82}, {"measurement": "OD600", "setting": "ZW658 strain [1]; after 24 hours, 200 mM sorbitol", "result": 7.12}, {"measurement": "OD600", "setting": "ZW658 strain [1]; after 48 hours, 10 mM sorbitol", "result": 8.30}, {"measurement": "OD600", "setting": "ZW658 strain [1]; after 48 hours, 20 mM sorbitol", "result": 8.26}, {"measurement": "OD600", "setting": "ZW658 strain [1]; after 48 hours, 50 mM sorbitol", "result": 8.84}, {"measurement": "OD600", "setting": "ZW658 strain [1]; after 48 hours, 100 mM sorbitol", "result": 8.12}, {"measurement": "OD600", "setting": "ZW658 strain [1]; after 48 hours, 200 mM sorbitol", "result": 7.72}, {"measurement": "ethanol production", "setting": "ZW658 strain [2]", "result": "ethanol production was also better"}, {"measurement": "xylose utilization", "setting": "ZW658 strain [2]", "result": "More xylose was utilized"}, {"measurement": "OD600", "setting": "ZW658 strain [2]; after 32 hours, total sugar about 160 g/L", "result": 7.88}]}
